This is an account of results in US8642544B2, “N-terminus conformationally constrained GLP-1 receptor agonist compounds” (Amylin Pharmaceuticals, LLC, priority 2009, dated 2014).

The test system of one assay is NIH/Swiss female mice. Description: in vivo basal glucose lowering assay. The conditions noted are these: subcutaneous injection. How it is done: Some compounds shown in Table 1 below were analyzed in an in vivo basal glucose lowering assay using the following procedure: A subcutaneous injection of either 200 μl phosphate-buffered saline (PBS) vehicle or test article was given immediately following baseline glucose (t=0) to NIH/Swiss female mice. Tail blood glucose samples were measured at t=2 and 4 hours post dose using a OneTouch® Ultra® (LifeScan, Inc., a Johnson & Johnson Company, Milpitas, Calif.). Body weight was measured daily. Significant test sample effects were identified by ANOVA (p<0.05), followed by Dunnett's post test using GraphPad Prism version 4.00 for Windows (GraphPad Software, San Diego Calif.).

Another assay concerns the target T1, GLP-1 receptor (Rattus norvegicus, UniProt P32301).
T1 construct: 96-well assay plate containing RIN m5f cell membranes in an ATP/GTP mixture; endogenous in cells; host or cells: RIN m5f cell membranes
T1 sequence (P32301 22-463): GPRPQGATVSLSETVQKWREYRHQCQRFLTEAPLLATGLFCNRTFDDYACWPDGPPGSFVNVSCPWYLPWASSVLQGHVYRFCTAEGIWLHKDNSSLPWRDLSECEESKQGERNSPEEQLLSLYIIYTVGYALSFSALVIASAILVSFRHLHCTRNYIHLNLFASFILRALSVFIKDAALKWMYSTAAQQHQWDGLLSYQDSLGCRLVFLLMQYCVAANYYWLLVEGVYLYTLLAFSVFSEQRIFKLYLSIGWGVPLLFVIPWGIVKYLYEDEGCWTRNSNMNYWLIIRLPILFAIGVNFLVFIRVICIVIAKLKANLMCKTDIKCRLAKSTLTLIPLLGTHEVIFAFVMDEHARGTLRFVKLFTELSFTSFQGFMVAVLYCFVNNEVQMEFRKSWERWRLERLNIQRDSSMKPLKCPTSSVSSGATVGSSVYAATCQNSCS
Description: in vitro functional assay at the GLP-1 receptor (cyclase, cAMP production in RIN m5f cell membranes). As to conditions: Cyclase GLP-1 Receptor EC50 (nM), Table 1; RIN m5f cell membranes, cAMP production (AlphaScreen). The assay is classed as biochemical. How it is done:
The compounds shown in Table 1 below were analyzed in an in vitro functional assay at the GLP-1 receptor. The assay was conducted as follows: Membrane fractions were prepared from confluent cultures of RIN m5f cells. Compounds were serially diluted with an assay buffer, and then added to a 96-well assay plate containing RIN m5f cell membranes in an ATP/GTP mixture. Cyclase activities were determined by measuring the production of cAMP induced through GLP-1 receptor activation. Quantification of cAMP production was achieved through a competitive chemiluminescence assay with a biotinylated-cAMP probe using Perkin Elmer Fusion™-Alpha Microplate Analyzer (AlphaScreen™ technology). The compound EC50 values were obtained through fitting the concentration-response curves to a four-parameter logistic equation within GraphPad PRISM® software.

[1] abbreviates: Table 1, time in hours, tail blood glucose at t=2 and 4 hours post dose.
[2] abbreviates: Table 1, result in words (inactive / similar to GLP-1).

Usually EC50 stands for the concentration that produces a half-maximal response. As to `CC[C@H](C)[C@H](NC(=O)[C@H](Cc1ccccc1)NC(=O)[C@H](CC(C)C)NC(=O)[C@H](CCCNC(=N)N)NC(=O)[C@@H](NC(=O)[C@H](C)NC(=O)[C@H](CCC(=O)O)NC(=O)[C@H](CCC(=O)O)NC(=O)[C@H](CCC(=O)O)NC(=O)[C@H](CC(C)C)NC(=O)[C@H](CCC(N)=O)NC(=O)[C@H](CCCCN)NC(=O)[C@H](CO)NC(=O)[C@H](CC(C)C)NC(=O)[C@H](CC(=O)O)NC(=O)[C@H](CO)NC(=O)[C@@H](NC(=O)[C@H](Cc1ccccc1)NC(=O)[C@@H](NC(=O)CNC(=O)[C@@H]1CCCN1C(=O)CNC(=O)[C@@H](N)Cc1c[nH]cn1)[C@@H](C)O)[C@@H](C)O)C(C)C)C(=O)N[C@@H](CCC(=O)O)C(=O)N[C@@H](Cc1ccccc1)C(=O)N[C@@H](CC(C)C)C(=O)N[C@@H](CCCCN)C(=O)N[C@@H](CC(N)=O)C(N)=O` [5B], the “In Vivo Glucose-Lowering Assay” value in the assay on NIH/Swiss female mice (setting [1]) is “more than 4 hours”. The response at GLP-1 receptor was half-maximal at 0.53 nM (EC50).
In the case of `CC[C@H](C)[C@H](NC(=O)[C@H](Cc1ccccc1)NC(=O)[C@H](CC(C)C)NC(=O)[C@H](CCCNC(=N)N)NC(=O)[C@@H](NC(=O)[C@H](C)NC(=O)[C@H](CCC(=O)O)NC(=O)[C@H](CCC(=O)O)NC(=O)[C@H](CCC(=O)O)NC(=O)[C@H](CC(C)C)NC(=O)[C@H](CCC(N)=O)NC(=O)[C@H](CCCCN)NC(=O)[C@H](CO)NC(=O)[C@H](CC(C)C)NC(=O)[C@H](CC(=O)O)NC(=O)[C@H](CO)NC(=O)[C@@H](NC(=O)[C@H](Cc1ccccc1)NC(=O)[C@@H](NC(=O)CNC(=O)C(C)(C)NC(=O)[C@@H](C)NC(=O)[C@@H](N)Cc1c[nH]cn1)[C@@H](C)O)[C@@H](C)O)C(C)C)C(=O)N[C@@H](CCC(=O)O)C(=O)N[C@@H](Cc1ccccc1)C(=O)N[C@@H](CC(C)C)C(=O)N[C@@H](CCCCN)C(=O)N[C@@H](CC(N)=O)C(N)=O` [9B], in the assay with NIH/Swiss female mice (setting [1]), the “In Vivo Glucose-Lowering Assay” value is “more than 4 hours”. At GLP-1 receptor, this compound returned an EC50 of 0.03 nM.
Taken in the same sequence, the figures for `CC[C@H](C)[C@H](NC(=O)[C@H](Cc1ccccc1)NC(=O)[C@H](CC(C)C)NC(=O)[C@H](CCCNC(=N)N)NC(=O)[C@@H](NC(=O)[C@H](C)NC(=O)[C@H](CCC(=O)O)NC(=O)[C@H](CCC(=O)O)NC(=O)[C@H](CCC(=O)O)NC(=O)[C@H](CC(C)C)NC(=O)[C@H](CCC(N)=O)NC(=O)[C@H](CCCCN)NC(=O)[C@H](CO)NC(=O)[C@H](CC(C)C)NC(=O)[C@H](CC(=O)O)NC(=O)[C@H](CO)NC(=O)[C@@H](NC(=O)[C@H](Cc1ccccc1)NC(=O)[C@@H](NC(=O)CNC(=O)[C@@H]1CSCN1C(=O)[C@@H](C)NC(=O)[C@@H](N)Cc1c[nH]cn1)[C@@H](C)O)[C@@H](C)O)C(C)C)C(=O)N[C@@H](CCC(=O)O)C(=O)N[C@@H](Cc1ccccc1)C(=O)N[C@@H](CC(C)C)C(=O)N[C@@H](CCCCN)C(=O)N[C@@H](CC(N)=O)C(N)=O` [9D] were “more than 4 hours” and 0.01 nM.
Taken in the same sequence, the figures for `CC[C@H](C)[C@H](NC(=O)[C@H](Cc1ccccc1)NC(=O)[C@H](CC(C)C)NC(=O)[C@H](CCCNC(=N)N)NC(=O)[C@@H](NC(=O)[C@H](C)NC(=O)[C@H](CCC(=O)O)NC(=O)[C@H](CCC(=O)O)NC(=O)[C@H](CCC(=O)O)NC(=O)[C@H](CC(C)C)NC(=O)[C@H](CCC(N)=O)NC(=O)[C@H](CCCCN)NC(=O)[C@H](CO)NC(=O)[C@H](CC(C)C)NC(=O)[C@H](CC(=O)O)NC(=O)[C@H](CO)NC(=O)[C@@H](NC(=O)[C@H](Cc1ccccc1)NC(=O)[C@@H](NC(=O)CNC(=O)[C@@H]1CS(=O)(=O)CN1C(=O)[C@@H](C)NC(=O)[C@@H](N)Cc1c[nH]cn1)[C@@H](C)O)[C@@H](C)O)C(C)C)C(=O)N[C@@H](CCC(=O)O)C(=O)N[C@@H](Cc1ccccc1)C(=O)N[C@@H](CC(C)C)C(=O)N[C@@H](CCCCN)C(=O)N[C@@H](CC(N)=O)C(N)=O` [9F] were “more than 4 hours” and 0.07 nM.
Turning to `CC[C@H](C)[C@H](NC(=O)[C@H](Cc1ccccc1)NC(=O)[C@H](CC(C)C)NC(=O)[C@H](CCCNC(=N)N)NC(=O)[C@@H](NC(=O)[C@H](C)NC(=O)[C@H](CCC(=O)O)NC(=O)[C@H](CCC(=O)O)NC(=O)[C@H](CCC(=O)O)NC(=O)[C@H](CC(C)C)NC(=O)[C@H](CCC(N)=O)NC(=O)[C@H](CCCCN)NC(=O)[C@H](CO)NC(=O)[C@H](CC(C)C)NC(=O)[C@H](CC(=O)O)NC(=O)[C@H](CO)NC(=O)[C@@H](NC(=O)[C@H](Cc1ccccc1)NC(=O)[C@@H](NC(=O)[C@H]1CCCN(C(=O)[C@@H]2CCCN(C(=O)[C@H](C)NC(=O)[C@@H](N)Cc3c[nH]cn3)C2)C1)[C@@H](C)O)[C@@H](C)O)C(C)C)C(=O)N[C@@H](CCC(=O)O)C(=O)N[C@@H](Cc1c[nH]c2ccccc12)C(=O)N[C@@H](CC(C)C)C(=O)N[C@@H](CCCCN)C(=O)N[C@@H](CCC(N)=O)C(=O)NCC(=O)NCC(=O)N1CCC[C@H]1C(=O)N[C@@H](CO)C(=O)N[C@@H](CCCCN)C(=O)N[C@@H](CCC(=O)O)C(=O)N[C@H](C(=O)N[C@H](C(=O)N[C@@H](CO)C(N)=O)[C@@H](C)CC)[C@@H](C)CC` [15A], the “In Vivo Glucose-Lowering Assay” value with NIH/Swiss female mice (setting [2]) was “inactive”.
On the same count and under the same terms, next, `CC[C@H](C)[C@H](NC(=O)[C@H](Cc1ccccc1)NC(=O)[C@H](CC(C)C)NC(=O)[C@H](CCCNC(=N)N)NC(=O)[C@@H](NC(=O)[C@H](C)NC(=O)[C@H](CCC(=O)O)NC(=O)[C@H](CCC(=O)O)NC(=O)[C@H](CCC(=O)O)NC(=O)[C@H](CC(C)C)NC(=O)[C@H](CCC(N)=O)NC(=O)[C@H](CCCCN)NC(=O)[C@H](CO)NC(=O)[C@H](CC(C)C)NC(=O)[C@H](CC(=O)O)NC(=O)[C@H](CO)NC(=O)[C@@H](NC(=O)[C@H](Cc1ccccc1)NC(=O)[C@@H](NC(=O)CNC(=O)[C@H]1CCCN(C(=O)[C@@H]2CCCN(C(=O)[C@@H](N)Cc3c[nH]cn3)C2)C1)[C@@H](C)O)[C@@H](C)O)C(C)C)C(=O)N[C@@H](CCC(=O)O)C(=O)N[C@@H](Cc1c[nH]c2ccccc12)C(=O)N[C@@H](CC(C)C)C(=O)N[C@@H](CCCCN)C(=O)N[C@@H](CCC(N)=O)C(=O)NCC(=O)NCC(=O)N1CCC[C@H]1C(=O)N[C@@H](CO)C(=O)N[C@@H](CCCCN)C(=O)N[C@@H](CCC(=O)O)C(=O)N[C@H](C(=O)N[C@H](C(=O)N[C@@H](CO)C(N)=O)[C@@H](C)CC)[C@@H](C)CC` [15C]: “inactive”.
On the same count and under the same terms, the same measure for `CC[C@H](C)[C@H](NC(=O)[C@H](Cc1ccccc1)NC(=O)[C@H](CC(C)C)NC(=O)[C@H](CCCNC(=N)N)NC(=O)[C@@H](NC(=O)[C@H](C)NC(=O)[C@H](CCC(=O)O)NC(=O)[C@H](CCC(=O)O)NC(=O)[C@H](CCC(=O)O)NC(=O)[C@H](CC(C)C)NC(=O)[C@H](CCC(N)=O)NC(=O)[C@H](CCCCN)NC(=O)[C@H](CO)NC(=O)[C@H](CC(C)C)NC(=O)[C@H](CC(=O)O)NC(=O)[C@H](CO)NC(=O)[C@@H](NC(=O)[C@H](Cc1ccccc1)NC(=O)[C@@H](NC(=O)CNC(=O)[C@@H]1CCCN(C(=O)[C@H]2CCCN(C(=O)[C@@H](N)Cc3c[nH]cn3)C2)C1)[C@@H](C)O)[C@@H](C)O)C(C)C)C(=O)N[C@@H](CCC(=O)O)C(=O)N[C@@H](Cc1c[nH]c2ccccc12)C(=O)N[C@@H](CC(C)C)C(=O)N[C@@H](CCCCN)C(=O)N[C@@H](CCC(N)=O)C(=O)NCC(=O)NCC(=O)N1CCC[C@H]1C(=O)N[C@@H](CO)C(=O)N[C@@H](CCCCN)C(=O)N[C@@H](CCC(=O)O)C(=O)N[C@H](C(=O)N[C@H](C(=O)N[C@@H](CO)C(N)=O)[C@@H](C)CC)[C@@H](C)CC` [15D]: “inactive”.
